Reference: patent US4892883A, “Pharmaceutical compositions containing bilobalide for the treatment of neuropathies Ai” (Willman - Schwabe GmbH & Co., priority 1973, dated 1990)

Assays:
[1] = system: male Sprague-Dawley rats given triethyltin chloride (brain water and electrolyte contents); assay: Protective effect against triethyltin chloride (TET) intoxication (Experiment 1, Table I); format: in vivo, rat (Sprague-Dawley); settings: for Brain % water / Brain K^+ / Brain Na^+ / Brain Na^+ /K^+ / Mean body weight, 14 days / Mean body weight, initial: TET 0.002%
Description: Male Sprague-Dawley rats (200-300 g body weight) are offered an aqueous solution containing 0.002 per cent triethyltin chloride (abbreviated to TET) as drinking liquid for 14 days. Control animals received water. The Gingko biloba monoextract (EGB) with or without bilobalide and the various test substances are administered orally 1×daily throughout these 14 days. On day 15, the animals are sacrificed, the brain is removed and its water and electrolyte contents are determined. The body weight of the animals during the experiment is checked daily.

[2] = system: neuropathy on the triethyltin chloride model; assay: Protective action against TET-induced neuropathy, hotplate test (Experiment 4, Table III); format: in vivo, rat (Sprague-Dawley); settings: overall conclusion of Experiments 1 to 5
[3] = system: mouse ear; settings: cited from earlier work
[4] = system: Penicillium glaucum; settings: cited from earlier work
[5] = system: male Sprague-Dawley rats given hexachlorophene (brain water and electrolyte contents); assay: Protective effect against hexachlorophene intoxication (Experiment 2, Table II); format: in vivo, rat (Sprague-Dawley); settings: hexachlorophene i.p.
Description: In another experiment, male Sprague-Dawley rats (200-250 g body weight) receive intraperitoneal injections of 20 mg/kg hexachlorophene (suspended in 0.2% agar) for 2 days and only 10 mg/kg on the 3rd day. The test substances are administered orally after administration of hexachlorophene.
The control animals receive only 0.2% agar i.p. or tap water orally. On the 4th day, the animals are sacrificed and the water and electrolyte contents in the brain are determined. The body weight of the animals is measured daily throughout the 4 days.

[6] = system: neuropathy on the triethyltin chloride model; assay: Protective action against TET-induced neuropathy, hotplate test (Experiment 4, Table III); format: in vivo, rat (Sprague-Dawley); settings: TET 0.002%
Description: The investigations of the protective action against damage to myelin and its expression as neuropathy is likewise carried out on the triethyltin chloride model. When the animals are treated not for 14 days but for only 6 days with a 0.002 per cent TET solution administered in place of the drinking water, they show various signs of neuropathy although no cerebral oedema is detectable in this period. The neuropathy is quantified by measuring the consumption of food and water and by the changes in body weight. In addition, as a specific parameter, the pain reaction time in a hotplate test (at 50° C.) is measured (J. Pharm. Pharmacol., 9 (1957), 381).

[7] = system: Escherichia coli; settings: cited from earlier work
[8] = system: existent neuropathies, neurological and mental functions; assay: Clinical investigations; format: in vivo
[9] = system: neuropathy on the triethyltin chloride model; assay: Curative action on TET-induced neuropathy, hotplate test (Experiment 5, Table IV); format: in vivo, rat (Sprague-Dawley); settings: for Body weight after intoxication / Food consumption after intoxication / Hotplate reaction time after intoxication / Water consumption after intoxication: after 6 days TET, before treatment
Description: In a similar manner, the curative action of bilobalid or extract containing bilobalide is investigated. The animals are offered a 0.002 per cent TET solution in place of drinking water for 6 days. Subsequently (from the 7th day), the TET solution is replaced by tap water and, simultaneously, the daily oral treatment is started. Treatment is continued for 6 days. The measured parameters (body weight, consumption of food and water, hotplate reaction time) are determined on the 6th day before the treatment and on the 14th day after the treatment.

[10] = system: cholinergic mechanisms of the central nervous system; assay: Stimulating effect on cholinergic mechanisms of the central nervous system; settings: in vivo
Description: The stimulating effects of the extract on the cholinergic system of the central nervous system were determined in various experiments. In one of these experiments the influence of the extract on the spontaneous climbing behaviour (SCB) was examined according to the method described by Marcais et al. (Psychopharmacology; 56, 233-234, 1978).

[11] = system: Monilia fructicola; settings: cited from earlier work
[12] = 5 mg/kg p.o. daily 6 days after TET
[13] = 10 mg/kg p.o. daily 6 days after TET

CC(C)(C)C1(O)CC2OC(=O)CC23C(=O)OC2OC(=O)C(O)C231 (centres unmarked) [Bilobalide, bilobalide]
Brain % water ([1]; 5 mg/kg p.o. 1×daily 14 days): 78.57 ± 0.19% | Brain K^+ ([1]; 5 mg/kg p.o. 1×daily 14 days): 418.9 ± 14.4 mmol/kg dry weight | Brain Na^+ ([1]; 5 mg/kg p.o. 1×daily 14 days): 162.6 ± 5.4 mmol/kg dry weight | Brain Na^+ /K^+ ([1]; 5 mg/kg p.o. 1×daily 14 days): 0.39 ± 0.020 | Mean body weight, 14 days ([1]; 5 mg/kg p.o. 1×daily 14 days): 323 g | Mean body weight, initial ([1]; 5 mg/kg p.o. 1×daily): 288 g | Brain % water ([1]; 10 mg/kg p.o. 1×daily 14 days): 78.16 ± 0.09% | Brain K^+ ([1]; 10 mg/kg p.o. 1×daily 14 days): 452.7 ± 12.9 mmol/kg dry weight | Brain Na^+ ([1]; 10 mg/kg p.o. 1×daily 14 days): 198.3 ± 2.74 mmol/kg dry weight | Brain Na^+ /K^+ ([1]; 10 mg/kg p.o. 1×daily 14 days): 0.44 ± 0.04 | Mean body weight, 14 days ([1]; 10 mg/kg p.o. 1×daily 14 days): 318 g | Mean body weight, initial ([1]; 10 mg/kg p.o. 1×daily): 272 g | Brain % water ([1]; 20 mg/kg p.o. 1×daily 14 days): 77.75 ± 0.11% | Brain K^+ ([1]; 20 mg/kg p.o. 1×daily 14 days): 400.6 mmol/kg dry weight | Brain Na^+ ([1]; 20 mg/kg p.o. 1×daily 14 days): 187.9 ± 10.4 mmol/kg dry weight | Brain Na^+ /K^+ ([1]; 20 mg/kg p.o. 1×daily 14 days): 0.45 ± 0.05 | Mean body weight, 14 days ([1]; 20 mg/kg p.o. 1×daily 14 days): 325 g | Mean body weight, initial ([1]; 20 mg/kg p.o. 1×daily): 288 g | protective effect against decrease in body weight and increase in brain water and Na^+ ([1]; oral, TET 14 days): good protective effect | prevention of neurotoxic signs and of cerebral oedema [2]: prevents the occurrence of neurotoxic signs and of cerebral oedema | inflammatory action [3]: no inflammatory action | fungicidal action [4]: no fungicidal action | Mean body weight, 4th day ([5]; 5 mg/kg p.o.): 270 g | Brain % water ([5]; 5 mg/kg p.o., 4th day): 77.93 ± 0.17% | Brain K^+ ([5]; 5 mg/kg p.o., 4th day): 414.5 ± 4.4 mmol/kg dry weight | Brain Na^+ ([5]; 5 mg/kg p.o., 4th day): 187.9 ± 4.0 mmol/kg dry weight | Brain Na^+ /K^+ ([5]; 5 mg/kg p.o., 4th day): 0.45 ± 0.01 | Mean body weight, initial ([5]; 5 mg/kg p.o., initial): 264 g | protection from cerebral oedema and reduction in body weight ([5]; oral): protects the animals from the development of cerebral oedema and prevents the reduction in body weight | Food consumption, final ([6]; 10 mg/kg/day p.o. 6 days): 22.1 g/animal/day | Mean body weight, final ([6]; 10 mg/kg/day p.o. 6 days): 261 g | Water consumption, final ([6]; 10 mg/kg/day p.o. 6 days): 21.9 ml/animal/day | Hotplate reaction time, final ([6]; 10 mg/kg/day p.o. 6 days, 50° C.): 17.9 s | Hotplate reaction time, initial ([6]; 10 mg/kg/day p.o., 50° C., initial): 28.9 s | Food consumption, initial ([6]; 10 mg/kg/day p.o., initial): 24.3 g/animal/day | Mean body weight, initial ([6]; 10 mg/kg/day p.o., initial): 241 g | Water consumption, initial ([6]; 10 mg/kg/day p.o., initial): 35.1 ml/animal/day | protective action against neuropathic signs ([6]; oral, 6 days): good protective action against the neuropathic signs | bactericidal action [7]: nor any bactericidal action | effects on existent neuropathies, neurological and mental functions [8]: favourable effects on existent neuropathies, neurological and mental functions | Body weight after treatment [9, 12]: 242 g | Food consumption after treatment [9, 12]: 17.4 g/animal/day | Hotplate reaction time after treatment [9, 12]: 61.58 s | Water consumption after treatment [9, 12]: 31.4 ml/animal/day | Body weight after intoxication ([9]; 5 mg/kg p.o. group): 236 g | Food consumption after intoxication ([9]; 5 mg/kg p.o. group): 10.4 g/animal/day | Hotplate reaction time after intoxication ([9]; 5 mg/kg p.o. group): 88.1 ± 5.67 s | Water consumption after intoxication ([9]; 5 mg/kg p.o. group): 11.4 ml/animal/day | Body weight after treatment [9, 13]: 232 g | Food consumption after treatment [9, 13]: 18.6 g/animal/day | Hotplate reaction time after treatment [9, 13]: 48.58 ± 18.44 s | Water consumption after treatment [9, 13]: 23.1 ml/animal/day | Body weight after intoxication ([9]; 10 mg/kg p.o. group): 227 g | Food consumption after intoxication ([9]; 10 mg/kg p.o. group): 8.9 g/animal/day | Hotplate reaction time after intoxication ([9]; 10 mg/kg p.o. group): 87.36 ± 7.46 s | Water consumption after intoxication ([9]; 10 mg/kg p.o. group): 12.7 ml/animal/day | regression of pre-existent damage ([9]; overall conclusion): pre-existent damage can be made to regress more quickly | stimulating effect on cholinergic mechanisms of the central nervous system [10]: stimulating effect on the cholinergic mechanisms of the central nervous system | fungicidal action [11]: no fungicidal action
